# Positions of bridges follow the written chain, without caps; N, C: chain ends. Residues, ends and D or L forms follow the SMILES beside them. No end group written: not given here.
# How the values were obtained:
# [1] = test system: HeLa P4 indicator cells infected with HIV-1Lai; experiment: HIV-1 promoter activation assay (LTR-driven β-galactosidase); format: cell-based
# Method: (§1) HeLa P4 indicator cells (8×10^4 cells/ml) were cultured in medium supplemented or not with infectious HIV-1Lai in the presence or absence of antibodies for three days, harvested and lysed. β-galactosidase activity was then determined as previously described by measuring the absorbance at 410 nm.
# as §1, with “with 1000 TCID50 of” for “with”, “peptides or mAb” for “antibodies”, “3” for “three”, “lysed. The” for “lysed.”, “activities were” for “activity was”
# [2] = test system: pdb10F T cells stimulated by pep24-pulsed EBV-Lu antigen-presenting cells; experiment: IL-2 secretion assay following antigen presentation; format: cell-based, murine; conditions: for inhibition of IL2 secretion: Example 2, Table 1 (table not given)
# His6-sCD4 = target: T1, His6-sCD4 (Homo sapiens, UniProt P01730); experiment: ELISA binding of His6-sCD4 to coated cyclic PDPs; conditions: 20 nM His6-sCD4, FIG. 8
# T1 construct: codons 1 to 6, and the anti-sense primer SCD4RTB (5′-[…]), which contains the reverse complement of codons 367 to 372; made in house; host or cells: Spodoptera frugiperda Sf9 cells, baculovirus (p119L vector, P10 promoter)
# Method: Three replicates corresponding to 10-fold serial dilutions of the nine cyclic PDPs (CB1-CB9) were coated overnight at 4° C. onto 96-well ELISA plates (Nunc. Paisley, UK) with an initial peptide concentration of 50 μM. Four washes in 160 mM PBS, pH 7.2, containing 0.1% Tween 20 (PBS-T) were performed before and after saturating the wells with 1% non-fat dry milk in PBT-T for 1 h at 37° C. Thereafter, 100 μl of 20 nM His6-sCD4 was added to each well. Following a 2 h incubation and four washes in PBS-T, bound His6-sCD4 was detected by addition of 100 μl of a 1:2000 solution of peroxidase-conjugated anti-His6 mAb (Sigma) and subsequent addition of peroxidase substrate. Absorbance was measured at 490 nm.
# [3] = format: in vitro ADME
# Description: A relatively high concentration of peptides is preferred to achieve efficient biological activity with regard to the efficient antibody dose. […] We believe that use of D-amino acids for peptide synthesis would improve their metabolic stability.
# [4] = peptide diluted in 20% acetonitrile buffer
Molecule,"inhibition of HIV-1Lai LTR-driven β-galactosidase expression ([1]; Example 2, 3 days, FIG. 10A)",inhibition of IL2 secretion [2],CD4 binding of coated cyclic peptide (His6-sCD4),"inhibition of HIV-1Lai LTR-driven β-galactosidase expression [1, 4]",further results
"FGDYYCLQYASS (not fully specified (N-terminus, C-terminus, bridges); also: cyclized (bridge not given here)) [Dig97c, unrelated peptide derived from the CDR-L3 region of the anti-digoxin 1C10 mAb, reference compound]",did not affect,–,–,–,–
"GSDQWNKMQYYP (not fully specified (N-terminus, C-terminus, bridges); also: cyclized (bridge not given here)) [ScCM9, scrambled form of PDP CM9, Lys-Cys added at both termini, reference compound]",did not affect,no inhibition,non-reactivity,–,–
CC[C@H](C)[C@@H]1NC(=O)[C@@H](NC(=O)[C@@H](N)CCCCN)CSSC[C@@H](C(=O)N[C@@H](CCCCN)C(N)=O)NC(=O)[C@H](CCC(N)=O)NC(=O)[C@H](CCCCN)NC(=O)[C@H](CCC(N)=O)NC(=O)[C@H](CCC(N)=O)NC(=O)[C@H](Cc2ccc(O)cc2)NC(=O)[C@H](Cc2c[nH]c3ccccc23)NC(=O)[C@H](C)NC(=O)[C@H](CC(C)C)NC(=O)[C@H](Cc2ccc(O)cc2)NC(=O)[C@H](CO)NC(=O)[C@H](Cc2ccc(O)cc2)NC1=O [CB8] (H-KCIYSYLAWYQQKQCK-NH2; disulfide 2-15),–,lack of activity,–,lack of activity,–
"KEEICEVEDQTY (not fully specified (N-terminus, C-terminus, bridges); also: cyclized (bridge not given here)) [ScCDR3-like, scrambled form of the CD4-derived CDR3-like peptide]",–,–,non-reactivity,–,–
CC(C)C[C@@H]1NC(=O)[C@@H](NC(=O)[C@@H](N)CCCCN)CSSC[C@@H](C(=O)N[C@@H](CCCCN)C(N)=O)NC(=O)[C@H](CO)NC(=O)[C@H](CCC(N)=O)NC(=O)[C@H](CCCNC(=N)N)NC(=O)[C@H](C(C)C)NC(=O)[C@H](Cc2c[nH]c3ccccc23)NC(=O)[C@H](Cc2c[nH]cn2)NC(=O)[C@H](C(C)C)NC(=O)CNC(=O)[C@H](Cc2ccccc2)NC(=O)[C@H]([C@@H](C)O)NC(=O)[C@H]([C@@H](C)O)NC1=O [CB1] (H-KCLTTFGVHWVRQSCK-NH2; disulfide 2-15; N-terminus and C-terminus assumed),–,–,–,no inhibition,"concentration range with inhibitory activity of IL2 secretion ([2]; Example 2): 125 to 250 µM; inhibition of HIV-1Lai LTR-driven β-galactosidase expression ([1]; 50 μM peptide, 3 days, FIG. 10A): significant inhibition; IC50 ([1]; FIG. 10B, read-out: IC50 of inhibition of β-galactosidase activity): ~15 µM; decrease in binding of CD4 to peptide after pre-incubation [3]: 50%"
